What was measured:
velvetleaf = test: Test A pre-/postemergence herbicide test; format: in vivo, Abutilon theophrasti; conditions: for Velvetleaf plant response rating: Preemergence, visual rating on 0 to 100 scale (0 no effect, 100 complete control)
How it was run: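 Formulated compound (non-phytotoxic solvent, surfactant) sprayed pre- onto soil of seeded loam/sand pots or post- onto seedlings at 1–2 leaves; ~10 d greenhouse; 0–100 visual control rating versus untreated.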

cupgrass, woolly = test: Test C pre-/postemergence herbicide test; format: in vivo, Eriochloa villosa
From the text: Seeds of plant species selected from blackgrass (Alopecurus myosuroides), ryegrass, Italian (Italian ryegrass, Lolium multiflorum), wheat (winter wheat, Triticum aestivum), galium (catchweed bedstraw, Galium aparine), corn (Zea mays), crabgrass, large (large crabgrass, Digitaria sanguinalis), foxtail, giant (giant foxtail, Setaria faberii), johnsongrass (Sorghum halepense), lambsquarters (Chenopodium album), morningglory (Ipomoea coccinea), nutsedge, yellow (yellow nutsedge, Cyperus esculentus), pigweed (Amaranthus retroflexus), ragweed (common ragweed, Ambrosia elatior), soybean (Glycine max), barnyardgrass (Echinochloa crus-galli), oilseed rape (Brassica napus), waterhemp (common waterhemp, Amaranthus rudis), kochia (Kochia scoparia), oat, wild (wild oat, Avena fatua), surinam grass (Brachiaria decumbens), foxtail, green (green foxtail, Setaria viridis), goosegrass (Eleusine indica), bromegrass, downy (downy bromegrass, Bromus tectorum), nightshade (eastern black nightshade, Solanum ptycanthum), cocklebur (common cocklebur, Xanthium strumarium), cupgrass, woolly (woolly cupgrass, Eriochloa villosa), bermudagrass (Cynodon dactylon), sunflower, (common oilseed sunflower, Helianthus annuus), Russian thistle (Salsola kali) and velvetleaf (Abutilon theophrasti) were planted into a blend of loam soil and sand and treated preemergence with test chemicals formulated in a non-phytotoxic solvent mixture which included a surfactant. At the same time, plants selected from these crop and weed species and also barley (winter barley, Hordeum vulgare), […]), chickweed (common chickweed, Stellaria media), deadnettle (henbit deadnettle, Lamium amplexicaule), and canarygrass (littleseed canarygrass, Phalaris minor) were planted in pots containing Redi-Earth® planting medium (Scotts Company, 14111 Scottslawn Road, Marysville, Ohio 43041) comprising spaghnum peat moss, vermiculite, wetting agent and starter nutrients and treated with postemergence applications of test chemicals formulated in the same manner. Plants ranged in height from 2 to 18 cm (1- to 4-leaf stage) for postemergence treatments. Treated plants and controls were maintained in a greenhouse for 13 to 15 days, after which time all species were compared to controls and visually evaluated. Plant response ratings, summarized in Table C, are based on a scale of 0 to 100 where 0 is no effect and 100 is complete control. A dash (-) response means no test result.

rice = test: Test C flooded paddy test; format: in vivo, Oryza sativa; conditions: Flood
How it was run: (§1)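 Plants at the 2-leaf stage in pots flooded to 3 cm were treated by applying compound directly to the paddy water, with depth held throughout. After 13 to 15 days in a greenhouse, response was rated visually against controls on a 0 (no effect) to 100 (complete control) scale.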

sedge, umbrella = test: Test C flooded paddy test; format: in vivo, Cyperus difformis; conditions: Flood
How it was run: as §1

ducksalad = test: Test C flooded paddy test; format: in vivo, Heteranthera limosa; conditions: Flood
How it was run: as §1

[1] = Postemergence, 125 g ai/ha, 0 to 100 scale, 0 no effect, 100 complete control
[2] = Postemergence, 500 g ai/ha, 0 to 100 scale (0 no effect, 100 complete control)
[3] = preemergence, 500 g ai/ha, 0 to 100 scale
[4] = Preemergence, 31 g ai/ha, scale 0 to 100 (0 no effect, 100 complete control)
[5] = Preemergence, 62 g ai/ha, scale 0 to 100
[6] = Preemergence, 125 g ai/ha, scale 0 to 100 (0 no effect, 100 complete control)
[7] = Preemergence, 250 g ai/ha, scale 0 to 100 (0 no effect, 100 complete control)
[8] = 31 g ai/ha, scale of 0 to 100 where 0 is no effect and 100 is complete control, 13 to 15 days
[9] = 62 g ai/ha, scale of 0 to 100 where 0 is no effect and 100 is complete control, 13 to 15 days
[10] = 125 g ai/ha, scale of 0 to 100 where 0 is no effect and 100 is complete control, 13 to 15 days
[11] = Preemergence, 31 g ai/ha, scale 0 to 100, 0 is no effect and 100 is complete control

Structure (SMILES)	Plant response rating, Velvetleaf (velvetleaf; [1])	Plant response rating, Velvetleaf (velvetleaf; [2])	Velvetleaf plant response rating (velvetleaf; 125 g ai/ha)	Plant response rating, Velvetleaf (velvetleaf; [3])	Cupgrass, Woolly plant response rating (cupgrass, woolly; [4])	Plant response rating, Cupgrass, Woolly (cupgrass, woolly; [5])	Plant response rating, Cupgrass, Woolly (cupgrass, woolly; [6])	Plant response rating, Cupgrass, Woolly (cupgrass, woolly; [7])	Cupgrass, Woolly plant response rating (cupgrass, woolly; [11])	also measured
O=C1NCC(c2ccc(F)cc2)C1C(=O)Nc1ccccc1F (racemic) [Compound 16]	0	0	0	0	55	95	95	95	–	Plant response rating, Rice (rice; [8]): 0; Plant response rating, Rice (rice; [9]): 0; Plant response rating, Rice (rice; [10]): 0; Plant response rating, Rice (rice; 250 g ai/ha, scale 0 to 100): 0; Plant response rating, Sedge, Umbrella (sedge, umbrella; [8]): 0; Plant response rating, Sedge, Umbrella (sedge, umbrella; [9]): 0; Plant response rating, Sedge, Umbrella (sedge, umbrella; [10]): 0; Plant response rating, Sedge, Umbrella (sedge, umbrella; 250 g ai/ha, scale 0 to 100): 0; Plant response rating, Ducksalad (ducksalad; [8]): 0; Plant response rating, Ducksalad (ducksalad; [9]): 40; Plant response rating, Ducksalad (ducksalad; [10]): 85; Plant response rating, Ducksalad (ducksalad; 250 g ai/ha, scale 0 to 100): 100
O=C1NCC(c2ccccc2)C1C(=O)Nc1ccccc1F (racemic) [Compound 81]	0	0	0	0	–	32	67	–	0	Plant response rating, Cupgrass, Woolly (cupgrass, woolly; Postemergence, 31 g ai/ha, scale 0 (no effect) to 100 (complete control)): 0; Plant response rating, Cupgrass, Woolly (cupgrass, woolly; Postemergence, 62 g ai/ha, scale 0 to 100 (0 no effect, 100 complete control)): 0; Plant response rating, Cupgrass, Woolly (cupgrass, woolly; Postemergence, 125 g ai/ha, scale 0 to 100 (0 no effect, 100 complete control)): 0; Plant response rating, Cupgrass, Woolly (cupgrass, woolly; Postemergence, 250 g ai/ha, scale 0 to 100 (0 no effect, 100 complete control)): 0; Plant response rating (scale of 0 to 100), Cupgrass, Woolly (cupgrass, woolly; Preemergence, 250 g ai/ha): 82
O=C1NCC(c2ccc(Cl)c(F)c2)C1C(=O)Nc1ccccc1F (centres unmarked) [Compound 53]	0	0	0	0	35	65	80	80	–	–
O=C1NCC(c2ccc(F)c(Cl)c2)C1C(=O)Nc1cccc(F)c1F (centres unmarked) [Compound 59]	0	0	0	0	40	70	80	80	–	–
O=C1NCC(c2ccc3c(c2)OC(F)(F)O3)C1C(=O)Nc1cccc(F)c1F (centres unmarked) [Compound 62]	0	0	0	0	65	75	80	85	–	–
O=C1NCC(c2cccc(Br)c2)C1C(=O)Nc1cccc(F)c1F (centres unmarked) [Compound 64]	0	30	0	0	30	70	85	90	–	–
O=C1NCC(c2cccc(Br)c2)C1C(=O)Nc1ccccc1F (centres unmarked) [Compound 66]	0	0	0	0	–	75	80	85	10	–
O=C1NCC(c2cccc(OC(F)(F)F)c2)C1C(=O)Nc1cccc(F)c1F (centres unmarked) [Compound 68]	20	20	0	0	–	75	85	90	75	–

Reference: patent US10294202B2, “Pyrrolidinones as herbicides” (FMC Corporation, priority 2013, dated 2019)
